According to patent US20260014173A1, “Nutritional composition for stroke” (N.V. Nutricia, priority 2022, published 2026):

Assays:
[1] = tested on: PC12 pheochromocytoma cells; test: Neurite outgrowth in in vitro PC12 neuronal cell model (NGF, no hypoxia), Examples 5 and 6; type: cell-based; settings: total concentration of 20 μM choline from chol-CI, PC or both, control set at 100%
Method: The effects of nutrient supplementation on neurite outgrowth parameters in PC12 pheochromocytoma cells was also assessed.
PC12 pheochromocytoma cells were grown in DMEM (Gibco), supplemented with 10% fetal bovine serum (FBS), penicillin (100 units/ml), and streptomycin (100 μg/ml) (Gibco), under a humidified atmosphere with 95% air and 5% CO2 at 37° C. Cells were seeded in collagen (0.01 mg/ml) coated 96 well plates at a density of 5000 cells/well and after 24 hours supplemented with medium containing 20 ng/ml nerve growth factor (NGF) with or without coenzyme Q10 (1 μM), vitamin D3 ((0.25 μM), vitamin B2 (0.5 μM), DHA (6.7 μM), a source of choline (20 μM phosphatidylcholine, PC) or a mixture thereof.
In the PC12 experiments the cells were not exposed to hypoxia.
Docosahexaenoic acid (DHA) was resuspended in absolute ethanol and diluted 5 times in fetal bovine serum. All compounds were purchased from Sigma (Zwijndrecht, The Netherlands).
Supplementation of cells was performed in 6-fold in 96 wells plates. These conditions were compared to non-supplemented cells. After supplementation for 48 hours with these combinations, cells were stained using Calcein-AM stain (2 ng/μl) and the nuclei were counterstained using Hoechst stain (0.6 μg/ml), in 100 μl culture medium per well and incubated for 20 min at 37° C. Subsequently, FITC and DAPI images (9 images per well for 96 wells plate) were taken using an ImageXpress high content imaging system. Neurite length was quantified using the neurite outgrowth module in MetaXpress.
Nutrients were supplemented alone (100% chol-CI or 100% PC) and in a ratio of 60:40 and 40:60 of chol-CI to PC. Supplementation of cells was performed in 6-fold in 96 wells plates at a total concentration of 20 μM choline, derived from chol-CI, from PC, or from both. The neurite outgrowth in these conditions were compared to non-supplemented PC12 cells.

[2] = tested on: Mouse primary cortical neurons (E14); test: Neurite outgrowth after hypoxia (oxygen glucose deprivation), cortical neuronal cultures, Example 3; type: cell-based; settings: OGD 3.5 hrs; vitamin D3 30 nM, co-enzyme Q10 3 μM, vitamin B2 30 nM, alone or combined; supplemented immediately after OGD for 24 hrs; control set at 100%
Method: Mouse primary cortical neurons (E14) were seeded onto 96-well plates coated with poly-D-lysine. Cells (20.000 cells/well) were cultured in modified Neurobasal medium (containing B27, Pen/Strep, and GlutaMAX). Cell cultures were incubated at 37° C. in 5% CO2 and medium was replaced every 2-3 days. At day 2 of in vitro culturing, cells underwent oxygen glucose deprivation (OGD) for 3.5 hrs. In order to induce glucose deprivation, modified Neurobasal medium was replaced with an equivalent volume of HBSS. For hypoxia, cells were placed in a humidity-controlled incubator (Whitley H35 Hypoxystation) set to 0.5% O2, 94.5% N2 and 5% CO2 at 37° C. for 3.5 hrs. After the hypoxic incubation period, HBSS was removed and replaced with modified Neurobasal medium, and plates returned to normoxic conditions and incubated at 37° C. in 5% CO2 for an additional 24 hrs. […] Nutrients were supplemented either alone, in combination of two, or in combination of three, starting immediately after the OGD and lasting for another 24 hrs. Every condition was tested in triplicate. […] At the end of the experiment, plates were fixed PFA for 5 min at room temperature. Then, cells were permeabilized and blocked using PBS containing 10% normal goat serum, 0.1% sodium azide and 0.2% Triton X-100. Cells were stained overnight with a monoclonal anti-beta-tubulin III antibody (Sigma Aldrich, T8578). Next, cells were stained with the secondary antibody Alexa Fluor 488 Goat anti-Mouse IgG (H+L) (Invitrogen A11001 Fisher, 10256302). Nuclei were stained with Hoechst 33342 (Thermofisher, H3570). Images were taken at a magnification of 20× in 12 fields of view using In Cell Analyser 2000.

Compound	neurite outgrowth compared to unsupplemented control PC12 cells [1]	neurite outgrowth after hypoxia relative to control [2]	neurite outgrowth compared to unsupplemented control PC12 cells ([1]; listed as PC)
C[N+](C)(C)CCO.[Cl-] [100% chol-CI, choline chloride]	improved neurite outgrowth		
COC1=C(OC)C(=O)C(C/C=C(\C)CC/C=C(\C)CC/C=C(\C)CC/C=C(\C)CC/C=C(\C)CC/C=C(\C)CC/C=C(\C)CC/C=C(\C)CC/C=C(\C)CCC=C(C)C)=C(C)C1=O [co-enzyme Q10, 2,3 dimethoxy-5 methyl-6-decaprenyl benzoquinone]		did not affect neurite outgrowth	
Cc1cc2nc3c(=O)[nH]c(=O)nc-3n(C[C@H](O)[C@H](O)[C@H](O)CO)c2cc1C [vitamin B2, riboflavin]		did not affect neurite outgrowth	
C=C1CC[C@H](O)C/C1=C/C=C1\CCC[C@]2(C)[C@@H]([C@H](C)CCCC(C)C)CC[C@@H]12 [vitamin D3, cholecalciferol]		did not affect neurite outgrowth	
phosphatidylcholine [100% PC]	increases neurite outgrowth slightly more than supplementation with 100% chol-CI		slightly better effect on neurite outgrowth than choline chloride
